From patent US5387614A, “Use of sigma receptor ligands as salivary gland stimulants” (University of Iowa Research Foundation, priority 1993, dated 1995)
Values belong to the compound of their own block, whether it stands above or below them.

Legend:
sigma-binding site = experiment: 3H-DTG radioligand saturation binding (Scatchard plot) in submaxillary gland membrane homogenate; set-up: species or system New Zealand white rabbits; details: single binding site; membrane homogenate of acini cells from rabbit submaxillary gland; 4° C., 60 min; spiperone 25 nM
Method: In this procedure, New Zealand white rabbits were sacrificed using 1/2-1 ml of Beuthanasia-D Special (Schering Plough Animal Health, Keniworth, N.J.: 390 mg pentobarital sodium and 50 mg phenytoin sodium per ml) by injecting the preparation into the marginal ear vein. Whole submaxillary glands, free of blood, were dissected and either used immediately or frozen in cold 100 mM tris-HCl (pH 7.4) buffer. Glandular tissue was rinsed with cold 50 mM Tris-HCl (pH 7.4) followed by homogenization for 30 sec (Polytron, Brinkman Instr., setting 7). The homogenate was centrifuged at 800 rpm for 10 min at 4° C. to remove extraneous tissue. Then the supernatant was centrifuged at 75,000 Xg for 15 min at 4° C. (model L8-55, Preparative Ultracentrifuge, Beckman Instruments, Fullerton, Calif.). Following centrifugation, the pellet was homogenized again in 100 mM tris-HCl buffer and centrifuged at 75,000 Xg for 15 min. The resulting pellet containing the membrane fragments was suspended in Tris-HCl buffer to yield a concentration of 250 mg (wet wt) per mL. […]
Spiperone (25 nM) was added to prevent binding to D2 dopamine or 5HT2 serotonin receptors. […] The filter, containing the precipitate, was transferred to a scintillation vial containing 1 mL of tissue solubilizer (Soluene 350, Packard Inst.) and 4 mL of scintillation fluid (Budget Solve , Fisher Scientific, Fair Lawn, N.J.) and counted (Beckman LS 3801). […]

salivary secretion = experiment: Saliva flow observed after topical dosing of the rabbit eye; type: in vivo; details: rabbit eye dosed topically (use as dry eye syndrome treatment)
Source text: The observations of effective salivary stimulation actually occurred during use of the most preferred compound wherein N=2, and R and R" are methyl, as dry eye syndrome treatment. […] This led to further investigations of this and other compounds as a means of treating dry mouth associated with, for example, Sjogren's syndrome. The present compound for example could be formulated into a conventional lozenge for a topical application directly in the oral cavity to stimulate saliva flow. Such lozenges can either be made by dissolving the drug in water, adding powdered sugar, flavor and a gum (e.g., 7% powdered acacia) to give sufficient adhesiveness. This type of lozenge is harder than a conventional tablet, but dissolves slowly. The lozenge formulation is made by compressing the formula on a tablet press according to the art.

sigma receptors = experiment: Radioligand competition experiments in submaxillary gland membrane homogenate; type: binding, New Zealand white rabbits; details: radioligand 3H-DTG (5 nM); rabbit submaxillary gland membranes; 4° C., 60 minutes; spiperone 25 nM; mean ± spread; read-out: averaged IC50
Method: In this procedure, New Zealand white rabbits were sacrificed using 1/2-1 ml of Beuthanasia-D Special (Schering Plough Animal Health, Keniworth, N.J.: 390 mg pentobarital sodium and 50 mg phenytoin sodium per ml) by injecting the preparation into the marginal ear vein. Whole submaxillary glands, free of blood, were dissected and either used immediately or frozen in cold 100 mM tris-HCl (pH 7.4) buffer. Glandular tissue was rinsed with cold 50 mM Tris-HCl (pH 7.4) followed by homogenization for 30 sec (Polytron, Brinkman Instr., setting 7). The homogenate was centrifuged at 800 rpm for 10 min at 4° C. to remove extraneous tissue. Then the supernatant was centrifuged at 75,000 Xg for 15 min at 4° C. (model L8-55, Preparative Ultracentrifuge, Beckman Instruments, Fullerton, Calif.). Following centrifugation, the pellet was homogenized again in 100 mM tris-HCl buffer and centrifuged at 75,000 Xg for 15 min. […]
Spiperone (25 nM) was added to prevent binding to D2 dopamine, or 5HT2 serotonin receptors. […] The filter along with the adhering precipitate was transferred to a scintillation vial containing 1 mL of tissue solubilizer (Soluene 350, Packard Inst., Downers Grove, Ill.) and 4 mL of scintillation fluid (Budget Solve , Fisher Scientific, Fair Lawn, N.J.) and counted (Beckman LS 3801). […] Specific binding was determined by subtracting NSB from total binding. […]

SMILES: Cc1ccccc1NC(=N)Nc1ccccc1C [3H-DTG]
- Kd (sigma-binding site): 6 ± 1.2 nM

SMILES: CN(C)CCc1ccccc1 [most preferred compound, N,N-dimethyl-2-phenylethylamine]
- saliva flow (salivary secretion): copious amounts of saliva flowed from about one half of the rabbits

- IC50 (sigma receptors): 690 ± 276 nM
SMILES: CN(Cc1cc(Br)cc(Br)c1N)C1CCCCC1 [bromhexine]
